Test results as given in US12303898B2, “Microfluidic devices and methods of use” (The Governing Council of the University of Toronto, priority 2018, dated 2025).

Experiments:
QPCTL = biological target: T1, QPCTL (Homo sapiens, UniProt Q9NXS2); assay: Flow cytometry and immunofluorescence of CD47 antibody binding in HAP1 cells after QPCTL inhibitor treatment; type: cell-based; details: inhibitor treatment (FIG. 14B, 14D, 14E), CC2C6 detects pyro-Glu modified CD47
T1 construct: endogenous in cells; host or cells: HAP1 cells (Horizon, clone C631)
Protocol: Flow cytometry. Cells were dissociated with 0.125% trypsin and washed once in once in Flow buffer (PBS with 2% BSA). For cell-surface analysis, antibody staining was carried out in Flow buffer for 30 min on ice at 4° C. in the dark. For intracellular antigens, cells were first fixed with 4% PFA (Electron Microscopy Sciences) in PBS for 10 min on ice, followed by permeabilization using Flow buffer with 0.1% TritonX-100 (Sigma) for 5 min at room temperature. Cells were washed twice with Flow buffer, followed by staining for 30 min on ice at 4° C. in the dark. Stained cells were washed thrice with Flow buffer and 7-AAD viability dye (3-5 μl, BioLegend) was added before quantification. […] Stained cells were quantified on an LSRII flow cytometer (BD Biosciences) or an iQue Screener PLUS (IntelliCyt), and data were analyzed using FlowJo software (RRID:SCR_008520). […]
Immunofluorescence microscopy. […] For mean fluorescence intensity (MFI) measurements, Membrite™ staining intensity was used for automated image segmentation (ImageJ custom macro, available upon request) for operator independent unbiased selection of primary regions of interest (ROI) masks (in the green channel) and the mean fluorescence intensity was measured from the APC and/or Alexa594 channel. […]

CD47 = assay: Validation of CD47 sgRNA knock-out HAP1 cell lines by flow cytometry and microfluidic sorting; type: cell-based, human; details: HAP1 cells, CD47 gene (FIG. 11C)
Description: As shown in FIG. 11A-C, this included sorting the wildtype (WT) HAP1 cells at different flow rates to decide on the ideal operating conditions, assessing the sorting of HAP1 cells transduced with sgRNAs targeting the CD47 gene (which should result in a decrease in the number of CD47+ cells), and mixing WT and clone cells together, sorting them and recovering the initial ratios. Experimental parameters were designed to have the majority of WT HAP1s be sorted into the middle bin thus upregulation and downregulation of CD47 could be assessed. […]
MICS sorting. […] Cells were sorted by MICS at a concentration of ˜5×10^6 cells/ml in HBSS with 2% BSA; initial cell concentration was measured using a Countess Automated Cell Counter (Invitrogen). […] Sorted samples were collected in their respective syringes, and the volume of solution collected in each syringe was measured by weight. […] Each sample was then loaded onto a 10-chambered microscope slide (Quick Read 3805, Globe Scientific) and cells were counted under fluorescent excitation using a custom counting macro and a Nikon TI Eclipse microscope. Sort efficiency was calculated by dividing the number of cells collected in the medium and high outlets by the total number of cells collected (low, medium and high). […]

QPCT target loci = assay: CRISPR editing analysis (TIDE / ICE) of double-sgRNA infected samples, QPCT target loci; type: cell-based, human; details: two independent experiments; for KO-score: ICE; for mean percent edited: TIDE
Protocol: (§1) Generation of CD47, QPCT and QPCTL knock-out cells. For transduction experiments using cell pools, single-stranded sgRNA oligos were annealed using T4 PNK in T4 ligation buffer (both NEB), and ligated into digested (BsmBI; NEB), phosphatase-treated (rSAP or CIP, NEB) and gel-purified modified pLCKO (for HAP1-Cas9) or pLCV2 (for HAP1, 293T and KMS11) backbones^24,25 using T4 DNA ligase. All plasmids were Sanger sequence verified and virus was prepared and titered as described above. HAP1, HAP1-Cas9 cells, 293T cells or KMS11 cells were infected with target and control gRNAs (MOI<1) in presence of 8 μg/ml polybrene. 24 h post infection, the medium was replaced with fresh medium containing puromycin (1 ug/ml for HAP1 and HAP1-Cas9, 1-2 ug/ml for 293T, 0.5 ug/ml for KMS11) and cells were incubated for 48 h. Cells were further cultured in selection-free medium as indicated for individual experiments (typically T3-T6), and passaged every 3-4 days. […] For infections with two sgRNAs (HAP1-Cas9 only), the second sgRNA was cloned into pLCKO hygro. Selection was carried out in puromycin (1 ug/ml) and hygromycin (800 ug/ml)-containing medium for the first 48 h, then in hygromycin-only medium for further 4-5 days. For single-cell knock-out clones (HAP1 only), sgRNAs were cloned into modified PX459v2.0 (from Addgene #62988, 1 kb stuffer sequence added). HAP1 cells were transfected using Lipofectamine 3000 (3.75 μl and 2.3 μg plasmid per 6-well), selected with puromycin for 48 h as above and seeded in limiting dilutions (1 cell/100 μl/96-well) 3 days later. Single-cell colonies were expanded, cryo-banked (in standard medium with 10% DMSO and a total of 20% FBS) and analyzed for mutations as described below. An sgRNA targeting the AAVS1 locus was used as negative control.
CRISPR editing analysis. For analysing indels after CRISPR-mediated editing, genomic DNA was isolated using the QIAamp DNA Blood Mini kit (Qiagen) or the Extracta DNA Prep kit (Quantabio). sgRNA target regions (100-200 bp up- and 500 bp downstream of sgRNA sequence) were amplified by touchdown PCR (−0.5° C./cycle from 72° C. to 60° C. plus 10 additional cycles at 59° C.) from 50-100 ng input DNA, PCR products were purified using the PureLink Quick PCR purification kit (Invitrogen) if necessary and analyzed by Sanger sequencing. Sequences were analyzed to determine the percentage of edited sequences contained in the sample using TIDE^49 and a “KO-score” using ICE^50 (Synthego). Non-edited cells amplified with the same primers were used as control samples. A representative analysis of double-sgRNA infected samples from two independent experiments yielded the following editing results for QPCT and QPCTL target loci (by sgRNA; mean percent edited/KO-score±SD): QPCTL #1 58.2/NA±16.2/N, QPCTL #2 33.23/47±32.96/0, QPCT #1 33.15/56±36.51/0, QPCT #2 80.2/76.4±19.85/2.42, QPCT #3 68.18/36.33±4.29/2.08; AAVS1/CD47 #1 (background or off-target, mean±SD over all QPCT and QPCTL target loci) 14.4/1.33±14.95/0.58. For single-cell derived clones, TIDE and ICE were used for screening purposes, and mutations were independently confirmed by PCR, Sanger sequencing and sequence alignment as described.

QPCTL target loci = assay: CRISPR editing analysis (TIDE / ICE) of double-sgRNA infected samples, QPCTL target loci; type: cell-based, human; details: two independent experiments; for mean percent edited: TIDE
Protocol: as §1, with “For single-cell knock-out clones (HAP1 only), sgRNAs were cloned into modified PX459v2.0 (from Addgene #62988, 1 kb stuffer sequence added). HAP1 cells were transfected using Lipofectamine 3000 (3.75 μl and 2.3 μg plasmid per 6-well), selected with puromycin for 48 h as above and seeded in limiting dilutions (1 cell/100 μl/96-well) 3 days later.” left out, “An sgRNA targeting the AAVS1 locus was used as negative control.” left out
CRISPR editing analysis. For analysing indels after CRISPR-mediated editing, genomic DNA was isolated using the QIAamp DNA Blood Mini kit (Qiagen) or the Extracta DNA Prep kit (Quantabio). sgRNA target regions (100-200 bp up- and 500 bp downstream of sgRNA sequence) were amplified by touchdown PCR (−0.5° C./cycle from 72° C. to 60° C. plus 10 additional cycles at 59° C.) from 50-100 ng input DNA, PCR products were purified using the PureLink Quick PCR purification kit (Invitrogen) if necessary and analyzed by Sanger sequencing. Sequences were analyzed to determine the percentage of edited sequences contained in the sample using TIDE^49 and a “KO-score” using ICE^50 (Synthego). […]

T1 sequence (Q9NXS2 whole entry): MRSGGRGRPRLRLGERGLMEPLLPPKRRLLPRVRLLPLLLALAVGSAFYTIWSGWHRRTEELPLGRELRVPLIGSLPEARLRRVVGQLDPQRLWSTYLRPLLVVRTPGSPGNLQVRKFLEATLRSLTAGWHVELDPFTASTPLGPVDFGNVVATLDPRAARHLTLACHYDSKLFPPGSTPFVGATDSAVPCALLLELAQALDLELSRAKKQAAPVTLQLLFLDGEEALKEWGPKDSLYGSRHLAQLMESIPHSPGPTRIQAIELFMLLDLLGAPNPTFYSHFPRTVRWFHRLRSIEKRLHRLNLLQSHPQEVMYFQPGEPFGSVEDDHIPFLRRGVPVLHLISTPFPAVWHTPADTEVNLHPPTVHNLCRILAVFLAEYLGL

Molecule | KO-score (QPCT target loci) | mean percent edited (QPCT target loci) [%] | also measured
CCCOc1ccc([C@H]2CNC(=O)N2c2ccc3[nH]cnc3c2)cc1 [PQ912] |  |  | CC2C6 binding (QPCTL): decreased
Guide #4: sgRNA targeting CD47 from the TKOv3 library, sequence GAAGACTATACAACCTCCTA (chemistry not fully specified) |  |  | gene inactivation (CD47): ineffective at gene inactivation
QPCT #1: sgRNA from the TKOv3 library, sequence TCAAGGATCACTCTTTGGAG (chemistry not fully specified) | 56 | 33.15 | 
QPCT #2: sgRNA from the TKOv3 library, sequence AGAGGCACCAGCCAACTGCA (chemistry not fully specified) | 76.4 | 80.2 | 
QPCT #3: sgRNA from the TKOv3 library, sequence GACCAAATGTCGTTTAGCAG (chemistry not fully specified) | 36.33 | 68.18 | 
QPCTL #1: sgRNA from the TKOv3 library, sequence GGGTTCGCACAACCAGCAGG (chemistry not fully specified) |  |  | mean percent edited (QPCTL target loci): 58.2%
QPCTL #2: sgRNA from the TKOv3 library, sequence ACAGGGCACAGCCGAATCCG (chemistry not fully specified) |  |  | KO-score (QPCTL target loci; ICE): 47; mean percent edited (QPCTL target loci): 33.23%
